Measured values from ChEMBL document CHEMBL1146874, “Metabolism investigation leading to novel drug design 2: orally active prostacyclin mimetics. Part 5” (Bioorg Med Chem Lett, 2006).

How the values were obtained:
Rattus norvegicus [1] = organism: Rattus norvegicus; test: Inhibition of ADP-induced platelet aggregation in rat platelet rich plasma; assay type: functional, organism-based
Homo sapiens = organism: Homo sapiens; test: Inhibition of ADP-induced platelet aggregation in human platelet rich plasma; assay type: functional, organism-based
[2] = Intrinsic clearance in rat liver microsomes after 60 mins; assay type: ADME, Microsome
[3] = Cmax in rat at 10 mg/kg, po; assay type: ADME, organism-based; design: dose 10 mg/kg, route oral; details: in vivo
[4] = Beta half life in rat at 10 mg/kg, iv; assay type: ADME, organism-based; design: dose 10 mg/kg, route intravenous; details: in vivo
[5] = Total clearance in rat at 10 mg/kg, iv; assay type: ADME, organism-based; design: dose 10 mg/kg, route intravenous; details: in vivo
[6] = Bioavailability in rat at 10 mg/kg, […]; assay type: ADME, organism-based; details: in vivo
Rattus norvegicus [7] = test: AUC in rat at 10 mg/kg, po; assay type: ADME, organism-based, Plasma; design: dose 10 mg/kg, route oral; details: in vivo
Rattus norvegicus [8] = test: Stability in orally dosed rat measured as M2 level in bile; assay type: ADME, organism-based; details: in vivo, po
Rattus norvegicus [9] = test: Stability in orally dosed rat measured as glucuronide of M2 level in bile; assay type: ADME, organism-based; details: in vivo, po
[10] = Cmax in human at 12.5 ug, po; assay type: ADME, organism-based; design: dose 12.5 ug, route oral; details: in vivo
[11] = AUC in human at 12.5 ug, po; assay type: ADME, organism-based; details: plasma
[12] = Half life in human at 12.5 ug, po; assay type: ADME, organism-based; details: in vivo
[13] = Bioavailability in human at 12.5 ug, po; assay type: ADME, organism-based; details: in vivo
[14] = Blood to plasma ratio in human at 12.5 ug, po; assay type: ADME, organism-based; details: read-out: BPR

SMILES	IC50 (Rattus norvegicus [1]) [nM]	IC50 (Homo sapiens) [nM]	CLint scaled [2] [mL/min/kg]	also measured
O=C(O)COc1cccc2c1C(O)C[C@](O)(COC(=O)N(c1ccccc1)c1ccccc1)C2 (stereo partly drawn)	> 10000	198		
O=C(O)COc1cccc2c1CC[C@](O)(COC(=O)N(c1ccc(F)cc1)c1cccc(F)c1)C2	> 10000	25	11.7	
O=C(O)COc1cccc2c1CC[C@](O)(COC(=O)N(c1ccc(F)cc1)c1ccccc1F)C2	5110	22	11.8	
O=C(O)COc1cccc2c1CC[C@](O)(COC(=O)N(c1ccccc1)c1ccccc1)[C@H]2O	> 10000	1290		
O=C(O)COc1cccc2c1CC[C@](O)(COC(=O)N(c1ccc(F)cc1)c1ccc(F)cc1)C2	> 10000	59	4.6	Cmax [3]: 575 ng/mL; half-life [4]: 3 h; clearance [5]: 30.3 mL/min/kg; bioavailability [6]: 29.5%; AUC (Rattus norvegicus [7]): 1610 ng·h/mL
O=C(O)COc1cccc2c1CC[C@](O)(COC(=O)N(c1ccccc1)c1ccc(Br)cc1)C2	6490	49	12.3	
O=C(O)COc1cccc2c1CC[C@](O)(COC(=O)N(c1ccccc1)c1ccc(O)cc1)C2	2490	35		Stability (Rattus norvegicus [8]): 12%; Stability (Rattus norvegicus [9]): 33%
O=C(O)COc1cccc2c1CC[C@](O)(COC(=O)N(c1ccccc1)c1ccccc1)C2		18	31.9	Cmax [10]: 0.157 ng/mL; AUC [11]: 0.327 ng·h/mL; half-life [12]: 1.5 h; bioavailability [13]: 55%; Cmax [3]: 282 ng/mL; bioavailability [6]: 9.6%; AUC (Rattus norvegicus [7]): 601 ng·h/mL; blood plasma ratio [14]: 0.57
O=C(O)COc1cccc2c1CC[C@](O)(COC(=O)N(c1cccc(F)c1)c1cccc(F)c1)C2	> 10000	14	13.5	
O=C(O)COc1cccc2c1CC[C@](O)(COC(=O)N(c1ccccc1F)c1ccccc1F)C2		63	44.8	
O=C(O)COc1cccc2c1CC[C@](O)(COC(=O)N(c1ccccc1)c1ccc(F)cc1)C2	4580	13	10.3	Cmax [3]: 434 ng/mL; half-life [4]: 1.6 h; clearance [5]: 32.9 mL/min/kg; bioavailability [6]: 19.2%; AUC (Rattus norvegicus [7]): 961 ng·h/mL
